Among the test systems are OVCAR-4 ovarian; SW-620 colon; T-47D breast; HL-60(TB) leukemia; MDA-MB-231 breast; A549 NSCLC; OVCAR-5 ovarian; SK-MEL-2 melanoma.
Test in all cases: NCI anticancer screen, dose series, 48 h

Several values for one entry are separate records, joined by “and”; a condition that tells them apart may be missing. Equal entries are not always repeated.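 Protocol summary: plate cells (96-well), add compound at 5 concentrations, incubate 48 h, interpolate endpoints linearly. GI50 marks 50% less growth. TGI is the concentration that stops growth completely.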

For `CN1CCN(CC(=O)N2c3cccc4cccc(c34)N(C(=O)CN3CCN(C)CC3)C2c2cn(-c3ccccc3)nc2-c2cccc([N+](=O)[O-])c2)CC1`, the GI50 is 2.25 µM with OVCAR-4 ovarian; 1.91 µM in the experiment on SW-620 colon; 1.97 µM with T-47D breast; 1.89 µM with HL-60(TB) leukemia; 1.84 µM with MDA-MB-231 breast; 3.21 µM in the experiment on A549 NSCLC. Further, the GI50 with OVCAR-5 ovarian was 2.46 µM; in the experiment on SK-MEL-2 melanoma, 1.95 µM. Also, the TGI in the experiment on OVCAR-4 ovarian worked out at 5.24 µM; in the experiment with SW-620 colon, 4.37 µM; in the experiment with T-47D breast, 4.34 µM; with HL-60(TB) leukemia it was 3.75 µM; in the experiment with MDA-MB-231 breast, 3.68 µM; with A549 NSCLC, 13.2 µM. Moreover, the TGI in the experiment on OVCAR-5 ovarian was found to be 7.53 µM; in the experiment on SK-MEL-2 melanoma, 4.04 µM.

Regarding `O=S(=O)(Nc1ccccn1)c1ccc(N=Nc2ccc(O)c3ncccc23)cc1`, the GI50 in the experiment with OVCAR-4 ovarian was 2.33 µM; in the experiment on SW-620 colon, 0.952 µM; with T-47D breast, 2.98 µM; with HL-60(TB) leukemia, 0.77 µM; with MDA-MB-231 breast, 1.11 µM; in the experiment with A549 NSCLC, 1.65 µM. In addition, the GI50 with OVCAR-5 ovarian was 3.53 µM; in the experiment with SK-MEL-2 melanoma, 0.463 µM. For the same molecule, the TGI in the experiment on OVCAR-4 ovarian turned out to be 12.2 µM; in the experiment with SW-620 colon, 25.5 µM; with T-47D breast it was 8.7 µM; with HL-60(TB) leukemia, 2.61 µM; with MDA-MB-231 breast, 6.03 µM; in the experiment on A549 NSCLC, 14 µM. The TGI with OVCAR-5 ovarian was determined as 18.7 µM; in the experiment with SK-MEL-2 melanoma it was 1.64 µM.

For the molecule `Cc1nn(C)c2cc(N(C)c3ccnc(Nc4cccc(S(N)(=O)=O)c4)n3)ccc12`, the GI50 was 6.15 µM with OVCAR-4 ovarian; 11.3 µM in the experiment on SW-620 colon; more than 7.8 µM in the experiment on T-47D breast; 5.76 µM with HL-60(TB) leukemia; 8.03 µM in the experiment on MDA-MB-231 breast; 8.55 µM in the experiment on A549 NSCLC. The GI50 was 5.83 µM with OVCAR-5 ovarian and 9.32 µM in the experiment with SK-MEL-2 melanoma. Moreover, the TGI with OVCAR-4 ovarian was more than 25 µM; in the experiment with SW-620 colon, more than 25 µM; in the experiment on T-47D breast, more than 21.1 µM; with HL-60(TB) leukemia, 21.5 µM; in the experiment on MDA-MB-231 breast, more than 25 µM; in the experiment with A549 NSCLC, more than 25 µM. Moreover, the TGI in the experiment with OVCAR-5 ovarian and with SK-MEL-2 melanoma was more than 25 µM throughout.

As for `Nc1ccc(-c2ccc(-c3nc4cc(Cl)c(Cl)cc4[nH]3)cc2)cc1`, the GI50 was 3.01 µM in the experiment with OVCAR-4 ovarian; less than 0.0313 µM in the experiment on SW-620 colon; 0.275 µM in the experiment on T-47D breast; 8.22 µM in the experiment with HL-60(TB) leukemia; 3.34 µM in the experiment with MDA-MB-231 breast; 1.46 µM in the experiment with A549 NSCLC. In addition, the figures for the GI50 in the experiment with OVCAR-5 ovarian and in the experiment on SK-MEL-2 melanoma were 26.2 µM and 2.46 µM, respectively. In addition, the TGI was more than 100 µM in the experiment with OVCAR-4 ovarian; more than 100 µM in the experiment on SW-620 colon; more than 100 µM with T-47D breast; more than 100 µM in the experiment on HL-60(TB) leukemia; more than 49.6 µM in the experiment on MDA-MB-231 breast; more than 100 µM with A549 NSCLC. The TGI in the experiment on OVCAR-5 ovarian and in the experiment with SK-MEL-2 melanoma was more than 100 µM throughout.

With `CNC(=O)CN1CCC(Oc2cc3c(Nc4cccc(Cl)c4F)ncnc3cc2OC)CC1`, the GI50 is 20.1 µM and > 7.05 µM with OVCAR-4 ovarian; 15.6 µM and > 6.56 µM in the experiment with SW-620 colon; 1.24 µM and 0.53 µM in the experiment on T-47D breast; 26.9 µM and > 4.95 µM in the experiment with HL-60(TB) leukemia; 5.9 µM and 4.18 µM in the experiment with MDA-MB-231 breast; 5.66 µM and > 4.69 µM in the experiment with A549 NSCLC. Moreover, the GI50 in the experiment on OVCAR-5 ovarian was 1.9 µM and 1.56 µM; in the experiment with SK-MEL-2 melanoma it was 16.7 µM and > 7.55 µM. Also, the TGI is 98.5 µM and > 10 µM in the experiment on OVCAR-4 ovarian; 32.9 µM and > 10 µM in the experiment with SW-620 colon; 18.1 µM and > 7.9 µM in the experiment on T-47D breast; more than 65.4 µM in the experiment with HL-60(TB) leukemia; 20.7 µM and > 10 µM with MDA-MB-231 breast; 22.9 µM and > 10 µM in the experiment on A549 NSCLC. Moreover, the TGI is 22.4 µM and > 10 µM in the experiment with OVCAR-5 ovarian; 34.1 µM and > 10 µM in the experiment on SK-MEL-2 melanoma.

For `COc1ccc(C2CC(=O)c3c(O)c(OC)c(OC)c(OC)c3O2)cc1O` (stereo not given), the GI50 with OVCAR-4 ovarian was 3.78 µM; with SW-620 colon, 0.0418 µM; with T-47D breast it was 19.2 µM; in the experiment with HL-60(TB) leukemia it was 0.0263 µM; in the experiment with MDA-MB-231 breast, 0.625 µM; in the experiment with A549 NSCLC, 0.817 µM. The results for the GI50 with OVCAR-5 ovarian and with SK-MEL-2 melanoma were more than 100 µM and 0.24 µM, respectively. Besides, the TGI was more than 100 µM with OVCAR-4 ovarian; more than 100 µM in the experiment with SW-620 colon; 77.9 µM in the experiment with T-47D breast; more than 100 µM in the experiment with MDA-MB-231 breast; more than 100 µM with A549 NSCLC; more than 100 µM in the experiment on OVCAR-5 ovarian. Further, the TGI in the experiment with SK-MEL-2 melanoma was more than 100 µM.

On to `CCN1CCN(c2ccc(Nc3ncc4ccc5ncn(C(C)C)c5c4n3)nc2)CC1`, for which the GI50 is 0.273 µM in the experiment with OVCAR-4 ovarian; 0.0352 µM in the experiment with SW-620 colon; 0.199 µM in the experiment with T-47D breast; less than 0.0238 µM in the experiment with HL-60(TB) leukemia; 0.111 µM in the experiment with MDA-MB-231 breast; 0.0838 µM with A549 NSCLC. In addition, the values for the GI50 in the experiment on OVCAR-5 ovarian and with SK-MEL-2 melanoma were 0.037 µM and 0.144 µM, respectively. The TGI in the experiment with OVCAR-4 ovarian is 0.885 µM; in the experiment with SW-620 colon, 0.418 µM; in the experiment on T-47D breast it was 7.3 µM; with HL-60(TB) leukemia, 0.586 µM; with MDA-MB-231 breast it was 0.727 µM; with A549 NSCLC, 10.4 µM. For the same molecule, the values for the TGI in the experiment on OVCAR-5 ovarian and in the experiment with SK-MEL-2 melanoma were 21.5 µM and 0.357 µM, respectively.

Regarding `CC1=CC(=O)c2ccc(C)cc2C1=O`, the TGI in the experiment with OVCAR-4 ovarian turned out to be 52.5 µM; with SW-620 colon it was 30.4 µM; in the experiment with T-47D breast, 15 µM; in the experiment on HL-60(TB) leukemia, 5.4 µM; in the experiment on MDA-MB-231 breast it was 24.2 µM; with A549 NSCLC it was 36.9 µM. Besides, the figures for the TGI in the experiment with OVCAR-5 ovarian and in the experiment on SK-MEL-2 melanoma were 35.4 µM and 44.3 µM, respectively.

As for `Cc1nc2sc(C(=O)Nc3cccc(Br)c3)c(N)c2cc1C(O)c1ccccc1` (stereo not given), the GI50 in the experiment on OVCAR-4 ovarian was 1.31 µM; with SW-620 colon, 0.375 µM; in the experiment with T-47D breast it was 0.665 µM; with HL-60(TB) leukemia, 0.395 µM; in the experiment with MDA-MB-231 breast it was 1.85 µM; in the experiment on A549 NSCLC, 0.9 µM. For the same molecule, the GI50 in the experiment on OVCAR-5 ovarian was 3.09 µM; in the experiment on SK-MEL-2 melanoma it was 1.77 µM. For the same molecule, the TGI was 20.4 µM with OVCAR-4 ovarian; more than 38 µM in the experiment on SW-620 colon; 31 µM with T-47D breast; 1.6 µM in the experiment on HL-60(TB) leukemia; 16.4 µM in the experiment on MDA-MB-231 breast; more than 71.3 µM in the experiment with A549 NSCLC. For the same molecule, the TGI was 20.1 µM in the experiment with OVCAR-5 ovarian and 26.4 µM in the experiment with SK-MEL-2 melanoma.
